Data from patent US9868746B2, “Substituted 5-aminothieno[2,3-C]pyridazine-6-carboxamide analogs as positive allosteric modulators of the muscarinic acetylcholine receptor M4” (Vanderbilt University, priority 2012, dated 2018).
Where two headings read alike, the source gives them in different places.

Biological target: T1, mAChR M4 (Homo sapiens, UniProt P08173)
T1 construct: expressed in transfected cells; host or cells: CHO-K1 cells stably transfected with M4 cDNA and chimeric G-protein Gqi5
T1 sequence (P08173 1-479): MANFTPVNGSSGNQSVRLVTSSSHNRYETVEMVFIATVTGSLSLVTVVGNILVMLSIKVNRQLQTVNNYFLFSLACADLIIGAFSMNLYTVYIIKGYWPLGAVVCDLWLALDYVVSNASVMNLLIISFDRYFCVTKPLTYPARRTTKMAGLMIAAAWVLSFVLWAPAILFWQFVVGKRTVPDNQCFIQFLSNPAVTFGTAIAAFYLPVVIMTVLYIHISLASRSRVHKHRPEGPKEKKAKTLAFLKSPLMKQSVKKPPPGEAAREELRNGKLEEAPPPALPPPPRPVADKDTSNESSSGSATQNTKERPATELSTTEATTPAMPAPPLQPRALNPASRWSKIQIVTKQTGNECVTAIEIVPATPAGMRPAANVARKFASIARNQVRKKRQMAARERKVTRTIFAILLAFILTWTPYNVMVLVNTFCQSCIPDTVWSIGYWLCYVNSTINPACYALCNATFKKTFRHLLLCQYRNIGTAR
Experiment: mAChR M4 cell-based functional assay (calcium mobilization, potentiation of EC20 acetylcholine response)
Details: for Emax at 30 µM: % ACh maximum at 30 μM

[1] = mAChR M4 cell-based functional assay, >10,000 estimated for low potency compounds without plateau, read-out: EC50

| SMILES | Emax at 30 µM [%] | EC50 [1] [nM] | EC50 (EC50 (nM)) [nM] |
| --- | --- | --- | --- |
| Cc1nnc2sc(C(=O)NCCc3ccccn3)c(N)c2c1C [Example B94] | 47 | 5000 |  |
| Cc1nnc2sc(C(=O)N3CC(NC(=O)Oc4ccccc4)(c4ccccc4)C3)c(N)c2c1C [Example B309] | 48 | > 10000 |  |
| Cc1nnc2sc(C(=O)N3CC(NCc4ccccc4)C3)c(N)c2c1C [Example B65] | 56 | 3600 |  |
| Cc1nnc2sc(C(=O)NC3CN(S(=O)(=O)c4cccc(Cl)c4F)C3)c(N)c2c1C [Example B139] | 65 | 54 |  |
| COc1ccc(C2CC2NC(=O)c2sc3nnc4c(c3c2N)CCCC4)cc1 (stereo not shown) [Example B55] | 48 | 47 |  |
| Cc1nnc2sc(C(=O)NC3CN(C(=O)Nc4ccc(C(C)C)cc4)C3)c(N)c2c1C [Example B349] | 71 | 26 |  |
| Cc1nnc2sc(C(=O)N3CC4(CN(C(=O)OCc5ccccc5)C4)C3)c(N)c2c1C [Example B398] | 47 | 1000 |  |
| Cc1nnc2sc(C(=O)NCc3ccc(S(=O)(=O)C(C)C)cc3)c(N)c2c1C [Example B48] | 77 |  | 48 |
| Cc1nnc2sc(C(=O)NC3CCN(S(=O)(=O)c4cccc(F)c4)C3)c(N)c2c1C (stereo not shown) [Example B253] | 71 | 390 |  |
| Cc1nnc2sc(C(=O)NCc3ccc(F)nc3)c(N)c2c1C [Example B440] | 80 | 190 |  |
| Cc1nnc2sc(C(=O)NC3CNC3)c(N)c2c1C [Example B81] | 34 | > 10000 |  |
| Cc1nnc2sc(C(=O)NC3CN(C(=O)C(C)(C)C)C3)c(N)c2c1C [Example B121] | 92 | 840 |  |
| COc1cc(CNC(=O)c2sc3nnc(C)c(C)c3c2N)ccn1 [Example B289] | 69 | 230 |  |
| Cc1nnc2sc(C(=O)NCc3ccnc(F)c3)c(N)c2c1C [Example B452] | 59 | 240 |  |
| Cc1nnc2sc(C(=O)NCc3ccc4[nH]c(C)c(C)c4c3)c(N)c2c1C [Example B250] | 75 | 190 |  |
| Cc1nnc2sc(C(=O)N3CC(F)(C4CCCCC4)C3)c(N)c2c1C [Example B296] | 67 | 280 |  |

| SMILES | Emax at 30 µM [%] | EC50 [1] [nM] | EC50 (EC50 (nM)) [nM] |
| --- | --- | --- | --- |
| Cc1nnc2sc(C(=O)N3CC[C@H](F)C3)c(N)c2c1C [Example B69] | 48 | > 10000 |  |
| Cc1nnc2sc(C(=O)NC3CCN(C(=O)C4CC4)C3)c(N)c2c1C (stereo not shown) [Example B242] | 79 | 1300 |  |
| Cc1nnc2sc(C(=O)NCc3ccc(N(C)C)cc3)c(N)c2c1C [Example B449] | 71 | 69 |  |
| Cc1nnc2sc(C(=O)NC3CCN(c4ccc(OC(F)(F)F)cc4)C3)c(N)c2c1C (stereo not shown) [Example B273] | 71 | 230 |  |
| Cc1nnc2sc(C(=O)N3CC(Sc4ccc(F)cc4F)C3)c(N)c2c1C [Example B419] | 56 | 220 |  |
| Cc1nnc2sc(C(=O)NCc3ccc(C(C)S(C)(=O)=O)cc3)c(N)c2c1C (stereo not shown) [Example B104] | 63 | 150 |  |
| Cc1nnc2sc(C(=O)NC3CCCOC3)c(N)c2c1C (stereo not shown) [Example B96] | 64 | > 10000 |  |
| Cc1cncc(-c2ccc(CNC(=O)c3sc4nnc(C)c(C)c4c3N)cc2)c1 [Example B499] | 71 | 200 |  |
| Cc1nnc2sc(C(=O)NC3CN(S(=O)(=O)c4ccc(C(F)(F)F)cc4)C3)c(N)c2c1C [Example B147] | 95 | 87 |  |
| Cc1nnc2sc(C(=O)N3C[C@@H]4C[C@@H]3CN4C(=O)Oc3ccccc3)c(N)c2c1C [Example B270] | 62 | > 10000 |  |
| Cc1nnc2sc(C(=O)NC3CN(S(=O)(=O)c4ccoc4)C3)c(N)c2c1C [Example B100] | 68 | 180 |  |
| COc1ccc(CNC(=O)c2sc3nnc(C)c(C)c3c2N)cc1C(F)(F)F [Example B171] | 71 | 23 |  |
| Nc1c(C(=O)NC2CC2)sc2nnccc12 [Example B1] | 40 | > 10000 |  |
| Cc1cccc(N2CCC(NC(=O)c3sc4nnc(C)c(C)c4c3N)C2)c1 (stereo not shown) [Example B265] | 60 | 120 |  |
| Cc1nnc2sc(C(=O)N3CCCC(c4ccccc4)C3)c(N)c2c1C (stereo not shown) [Example B107] | 52 | 1700 |  |
| Cc1nnc2sc(C(=O)NCc3ccc([S+]([O-])C(F)(F)F)cc3)c(N)c2c1C (stereo not shown) [Example B476] | 66 | 1600 |  |
